According to PMC8279484 (Journal of Medicinal Chemistry, 2021):

How the values were obtained:
Type in all cases: cell-based, human
NF-κB = test: LPS-induced NF-κB-driven luciferase gene reporter assay in THP-1 Lucia monocytes; settings: for Rel. Slope: HS relative to LXA4 (1); for Efficacy Rel. Eff.: Imax relative to LXA4 (1); for reduction of LPS-induced NF-κB-driven luciferase activity: approximate extent; for reduction of LPS-induced NF-κB-driven luciferase activity / Imax (%): 1 pM–1 μM; for Imax (%): maximal % inhibition of LPS (50 ng/mL)-stimulated NF-κB luciferase activity, 30 min pretreatment
Method: Mycoplasma-free THP-1-Lucia NF-κB cells were grown in an RPMI 1640 (Gibco) medium containing 2 mM L-glutamine, 1.50 g/L sodium bicarbonate, 4.50 g/L glucose, 10 mM N-(2-hydroxyethyl)piperazine-N′-ethanesulfonic acid (HEPES), and 1 mM sodium pyruvate. Then, 10% heat-inactivated fetal bovine serum (FBS) (30 min at 56 °C), 100 μg/mL Normocin, and Pen-Strep (50 U/mL to 50 μg/mL) were also added to the growth media. As THP-1-Lucia cells were resistant to Zeocin, the latter was used as a selective antibiotic (a high dose, i.e., 100 μg/mL, was alternated every 2 weeks with a low dose, i.e., 10 μg/mL).
(§1) LXA41 and all of the tested sLXms were dissolved in ethanol and further diluted in a culture medium (final ethanol concentration 0.1%; equivalent concentrations were used as the vehicle control). Prior to in vitro experiments, THP-1-Lucia NF-κB cells were harvested and plated at 1 × 10^5 cells/well on 96-well plates and left to settle in the incubator at 37 °C, 95% humidity, and 5% CO2, in 0.1% FBS-containing media, pretreated for 30 min with increasing doses of LXA41, sLXms (from 10^–12 to 10^–6 M), or appropriate controls, followed by stimulation with 50 ng/mL LPS for 24 h.
NFκB activity was monitored in the human THP-1 monocytic leukemia cell line containing a stably integrated NF-κB-inducible Lucia reporter construct (as previously reported).[21] When stimulated with LPS, the transcription factor NF-κB is activated, upregulating the synthesis of proinflammatory mediators, thus bringing about an inflammatory response. In these cells, NF-κB activation is linked to a […] luciferase gene and can be measured using luminescence.
Heat-killed listeria monocytogenes (HKLM) (10^8/mL) was used as a positive control.[28] The levels of NF-κB-induced Luciferase were then measured in a culture supernatant using QUANTI-Luc as the detection reagent, and measurements were taken on a bioluminescence reader.
After 24 h, the levels of NF-κB-induced Lucia were assayed in a cell culture supernatant using QUANTI-Luc, as a detection reagent, on a bioluminescence reader (Synergy HT, BioTek Instruments, Inc. Vermont). Aliquots of the supernatant were retained for subsequent cytokine and LDH assays. Cellular proteins were extracted with a radioimmunoprecipitation assay (RIPA) buffer (Thermo Fisher, Ireland), supplemented with protease inhibitors (Sigma-Aldrich, Ireland). Lysates were clarified by centrifugation (3200g, 10’, 4 °C) to remove cell debris, and the cell protein level was quantified by performing a bicinchoninic acid (BCA) assay (as per the manufacturer’s instructions) reading the protein absorbance at 570 nm, using a spectrophotometer (SPECTRAMAX M2, Molecular Devices (U.K.) Limited). A “relative luminescence unit” (RLU) was obtained using the average value of the lum/abs ratio of two replicates.
The “coding” of the heat-map indicates the arbitrary criteria to assign points to each single PD component (efficacy = Imax or Emax; potency = IC50 or EC50; slope = HS) to generate a final (aggregate) relative PD score. […] If a single PD component was equal to the reference level (x = 1), then the single-component relative score was arbitrarily set to 0 (gray). If a single PD component was smaller than the reference level (x < 1), then the single-component relative score was arbitrarily set to −1 (light red) or −2 (dark red). If the curve of a single PD component was best fitting to a flat line (x = 0), then the single-component relative score was arbitrarily set to −4 (purple) (Table S1).

THP-1 LUCIA monocytes [1] = test: In vitro safety study: Safety index (Si), activity versus toxicity; settings: for IC50: Homo sapiens, THP-1, highest IC50 among the LPS-challenged assays (NF-κB activity, cytokine, LDH release), read-out: Extrinsic Activity hIC50; for Safety Index TC50/IC50: ratio of intrinsic TC50 to extrinsic hIC50
Method: A postanalysis “safety study” was conducted on all QNX-sLXms. For each tested compound, we calculated an in vitro “Safety index” (Si) by relating its “anti-inflammatory half-maximal activity” (the highest dose among the IC50 of the extrinsic LPS-challenged phenotype: NF-κB activity, proinflammatory cytokine, and LDH release) to its intrinsic “toxicity” (expressed as the relative half-maximal LDH-associated cytotoxicity). The generated Si is potentially predictive of a translational “therapeutic” range: the higher the Si, the safer the molecule is. As summarized in Table S4, Si values from all tested compounds fall in a broad range (7–50).

THP-1 LUCIA monocytes [2] = test: Intrinsic cytotoxicity: LDH release without LPS; settings: for Intrinsic Toxicity Level: LDH-associated level of cytotoxicity (high / moderate / low); for Intrinsic Toxicity TC50 (pM): half-maximal intrinsic LDH-associated toxic activity, no LPS
Method: We investigated the potential cytotoxicity of all candidate sLXms by assaying LDH release.[50] The response to LPS was arbitrarily set to 100%, and values were expressed relative to this. As previously reported by others, LPS provokes LDH release.[51] […] Ultimately, untreated cells defined the spontaneous cell release thresholds.
Lactate dehydrogenase (LDH) was assayed in cell supernatants to investigate possible cytotoxicity of the lead compound. LDH is rapidly released into the culture medium after disruption of the plasma membrane.[67],[69] After 24 h of exposure to sLXms, vehicle, or controls, followed by LPS stimulation, as described above, THP-1-Lucia NF-κB-cell supernatants were collected and LDH was assayed. Cytotoxicity was evaluated relative to vehicle controls. Maximum releasable LDH was determined in cells lysed with 2% Triton-X-100 (Sigma-Aldrich, Ireland). LDH levels were assessed by reading the absorbance at 490 nm (protein) and 690 nm (background noise), using a spectrophotometer (SPECTRAMAX M2, Molecular Devices (U.K.) Limited).

IFNγ = test: LPS-induced IFNγ release from THP-1 Lucia monocytes (multiplex electrochemiluminescence)
Method: as §1, with “h. Untreated (Unt) or vehicle-treated (Veh) cells were used as negative controls; 1 pM (1R)-5, the (1R)-epimer of the benzo-mimetic, was used as a positive control for any aromatic mimetic; and, finally, we compared the observed effects to the conventional glucocorticoid dexamethasone (Dex) treatment, at 1 μM.” for “h.”
(§2) After 24 h of exposure to LXA41, sLXms, or vehicle, followed by LPS stimulation (50 ng/mL), as described above, THP-1-Lucia NF-κB-cell supernatants were collected and cleared by centrifugation. Concentrations of IFN-γ, IL-1β, IL-6, IL-8, IL-10, IL-12p70, and TNF-α in culture supernatants were assessed by electro-chemi-luminescent detection, using a commercially available human 96-well plate “multiplex” (several analytes in the same well) kit for tissue culture samples, according to the manufacturers’ guidelines.
(§3) The “coding” of the heat-map indicates the arbitrary criteria to assign points to each single PD component (efficacy = Imax or Emax; potency = IC50 or EC50; slope = HS) to generate a final (aggregate) relative PD score. If a single PD component was greater than the reference level (x > 1), then the single-component relative score was arbitrarily set to +1 (light green) or +2 (dark green). If a single PD component was equal to the reference level (x = 1), then the single-component relative score was arbitrarily set to 0 (gray). If a single PD component was smaller than the reference level (x < 1), then the single-component relative score was arbitrarily set to −1 (light red) or −2 (dark red). If the curve of a single PD component was best fitting to a flat line (x = 0), then the single-component relative score was arbitrarily set to −4 (purple) (Table S1).

IL-1β = test: LPS-induced IL-1β release from THP-1 Lucia monocytes (multiplex electrochemiluminescence)
Method: as §1, with “h. Untreated (Unt) or vehicle-treated (Veh) cells were used as negative controls; 1 pM (1R)-5, the (1R)-epimer of the benzo-mimetic, was used as a positive control for any aromatic mimetic; and, finally, we compared the observed effects to the conventional glucocorticoid dexamethasone (Dex) treatment, at 1 μM.” for “h.”
as §2, §3

IL-6 = test: LPS-induced IL-6 release from THP-1 Lucia monocytes (multiplex electrochemiluminescence)
Method: as §1, with “h. Untreated (Unt) or vehicle-treated (Veh) cells were used as negative controls; 1 pM (1R)-5, the (1R)-epimer of the benzo-mimetic, was used as a positive control for any aromatic mimetic; and, finally, we compared the observed effects to the conventional glucocorticoid dexamethasone (Dex) treatment, at 1 μM.” for “h.”
as §2, §3

[3] = concentration–response, LPS 50 ng/mL, 24 h
[4] = Homo sapiens, THP-1, LPS 50 ng/mL, 24 h

| Compound | Rel. Slope (NF-κB) | Efficacy Rel. Eff. (NF-κB) | reduction of LPS-induced NF-κB-driven luciferase activity (NF-κB) | Imax (%) (NF-κB; 24 h) | (Single component) Rel. Score: Rel. Sl. (NF-κB; score relative to LXA4 (1)) | IC50 (THP-1 LUCIA monocytes [1]) | Safety Index TC50/IC50 (THP-1 LUCIA monocytes [1]) | Intrinsic Toxicity Level (THP-1 LUCIA monocytes [2]) | Intrinsic Toxicity TC50 (pM) (THP-1 LUCIA monocytes [2]) | further results |
| --- | --- | --- | --- | --- | --- | --- | --- | --- | --- | --- |
| CCCCCCC[C@@H](O)c1nc2ccccc2nc1/C=C/[C@@H](O)[C@@H](O)CCCC(=O)OC [(R)-8, Methyl (5S,6R,E)-5,6-Dihydroxy-8-(3-((R)-1-hydroxyoctyl)quinoxalin-2-yl)oct-7-enoate] | 0.49 | 0.96 | 10–20% | 23 ± 7% | -1 (0.01 < x < 1) | 0.2 nM | 50 | Low-Mod. | 10,000 pM | IC50 (NF-κB; Homo sapiens, THP-1, LPS 50 ng/mL, 24 h, read-out: Potency IC50): 0.04 nM; Potency Rel. Pot. (NF-κB; IC50 relative to LXA4 (1)): 1.5; IC50 (range in words) (NF-κB; LPS 50 ng/mL, 24 h): “pM” range; (Single component) Rel. Score: Rel. Pot. (NF-κB; score relative to LXA4 (1)): 1 (1 < x < 5); (Aggregate) Rel. PD Score (NF-κB; sum of efficacy, potency, slope scores relative to LXA4 (1)): 0; PD score, IFNγ release (IFNγ; relative to LXA4 (1)): negative PD scores |
| CCCCC[C@H](O)c1nc2ccccc2nc1/C=C/[C@@H](O)[C@@H](O)CCCC(=O)OC [(S)-6, Methyl (5S,6R,E)-5,6-Dihydroxy-8-(3-((S)-1-hydroxyhexyl)quinoxalin-2-yl)oct-7-enoate] | 0.47 | 1.42 | 25–35% | 34 ± 9% | 1 (1 < x < 10) | 0.02 nM | 10 | Low-Mod. | 200 pM | Imax, IL-1β release (IL-1β; [3]): completely lost the protective effect; PD score, IL-1β release (IL-1β; relative to LXA4 (1)): −6; IC50 (IFNγ; [4]): 2 nM; Imax, IFNγ release (IFNγ; [3]): 74 ± 4%; IC50 (IL-6; [4]): 0.001 nM; Imax, IL-6 release (IL-6; [3]): 98 ± 1%; PD score, IL-6 release (IL-6; relative to LXA4 (1)): +2; rel. slope, IL-6 release (IL-6; relative to LXA4 (1)): 2.4 |
